Assay results: patent US10449183B2, “Methods for inhibiting preterm labor and uterine contractility disorders and preventing cervical ripening” (DIGNITY HEALTH, priority 2010, dated 2019)

System: human myometrium
Test: Human myometrial contractility in vitro (organ chamber / muscle bath)
Format: cell-based
Description: The inventors tested whether a soluble form of progesterone would inhibit human myometrial contractility in vitro (FIG. 7). FIG. 7 is a schematic drawing of the muscle bath that is used to measure uterine contractility in vitro. The system consists of a water jacketed chamber to maintain temperature at 37 degrees and an inner chamber where the tissue is suspended in Krebs'-Ringer solution and bubbled with air. The tissue is connected to a force transducer and the signals from the transducer are amplified, stored and analyzed by a data acquisition system. The inventors examined the direct effects of various tocolytics on uterine contractility with and without progesterone, as it was possible that a tocolytic used with progesterone would produce additive, synergistic or antagonistic action on contractility.

CC(=O)[C@H]1CC[C@H]2[C@@H]3CCC4=CC(=O)CC[C@]4(C)[C@H]3CC[C@]12C [P4, progesterone]
effect on human myometrial contractions (10^−4M progesterone): inhibited myometrial contractions | contractile inhibition of the combination (P4 (10^-5 M) with indomethacin (IND), term, not in labor): increase contractile inhibition, by additive or synergistic actions | contractile inhibition of the combination (P4 (10^-5 M) with nifedipine (Nife), term, not in labor): increase contractile inhibition, by additive or synergistic actions | effect on pinacidil inhibition of contractility (P4 (10^−5M) with pinacidil (10^−6.5M), term, not in labor): decreases pinacidil inhibition of contractility | effect on myometrial contractility (P4 soluble and crystalline in ETOH): inhibits myometrial contractility
